We go through 46 molecules from patent US7101878B1 (Agouron Pharmaceuticals, Inc., priority 1998, dated 2006).

In the first assay the target is T1, human GnRH receptor (Homo sapiens, UniProt P30968).
T1 construct: expressed in transfected cells; host or cells: HEK 293 (hGnRH-R/293, from Dr. Stuart Sealfon)
T1 sequence (P30968 1-328): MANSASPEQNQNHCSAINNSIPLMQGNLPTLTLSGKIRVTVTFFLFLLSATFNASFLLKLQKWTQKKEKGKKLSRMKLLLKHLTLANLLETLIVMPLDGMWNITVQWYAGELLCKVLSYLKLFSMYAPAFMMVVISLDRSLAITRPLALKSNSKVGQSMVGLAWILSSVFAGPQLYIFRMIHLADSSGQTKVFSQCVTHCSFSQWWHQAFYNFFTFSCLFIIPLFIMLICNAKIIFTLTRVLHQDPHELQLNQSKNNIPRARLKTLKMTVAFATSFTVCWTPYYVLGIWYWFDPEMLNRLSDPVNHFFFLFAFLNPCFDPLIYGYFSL
As to the kind of experiment: Radioligand binding, 125I-GnRH-A displacement, membranes of HEK 293 cells with human GnRH receptor. As to conditions: 1 h, substrate remaining; 10 uM compound; closer to zero = closer to 100% inhibition; read-out: S%R 10 uM hGnRHR. The procedure, abridged:
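After filtration and PBS washes, bound radioactivity was counted by scintillation and IC50 derived. Identical conditions applied for non-human receptors.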
With `Cc1cc2c(cc1Cc1ccc(C(=O)Nc3ccc(O)cc3)o1)C(C)(C)CCC2(C)C` [Compound 340], the remaining activity at 10 µM amounted to 28%.

Consider `Cc1cc2c(cc1Cc1ccc(C(=O)Nc3ccc(O)c4ncccc34)o1)C(C)(C)CCC2(C)C` [Compound 341], for which the remaining activity at 10 µM amounted to 20%. Consider `Cc1cc2c(cc1Cc1ccc(C(=O)Nc3ccccc3O)o1)C(C)(C)CCC2(C)C` [Compound 342], for which the remaining activity at 10 µM came out at 45%. Consider `COc1cc(C#N)c(NC(=O)c2ccc(Cc3cc4c(cc3C)C(C)(C)CCC4(C)C)o2)cc1OC` [Compound 343], for which the remaining activity at 10 µM came to 33%. Same read-out and setting: the result for `Cc1cc2c(cc1Cc1ccc(C(=O)Nc3ccccc3C(=O)NCC(C)(C)CN(C)C)o1)C(C)(C)CCC2(C)C` [Compound 344] reads 57%; that for `Cc1cc2c(cc1Cc1ccc(C(=O)Nc3cccc(O)c3)o1)C(C)(C)CCC2(C)C` [Compound 345], 40%. Regarding `Cc1cc2c(cc1Cc1ccc(C(=O)Nc3cccc4ncccc34)o1)C(C)(C)CCC2(C)C` [Compound 346], the remaining activity at 10 µM was -14%. In the case of `Cc1cc2c(cc1Cc1ccc(C(=O)Nc3ccc(CC#N)cc3)o1)C(C)(C)CCC2(C)C` [Compound 347], the remaining activity at 10 µM is 2%. On to `Cc1cc2c(cc1Cc1ccc(C(=O)Nc3ccccc3C(=O)N3CCN(C)CC3)o1)C(C)(C)CCC2(C)C` [Compound 348], for which the remaining activity at 10 µM amounted to 49%.

Turning to `Cc1cc2c(cc1Cc1ccc(C(=O)Nc3ccccc3C(=O)NC3CC45CCN4CCC35)o1)C(C)(C)CCC2(C)C` (stereo not shown) [Compound 349], the remaining activity at 10 µM was found to be 47%.

For the molecule `CNc1ccccc1NC(=O)c1ccc(Cc2cc3c(cc2C)C(C)(C)CCC3(C)C)o1` [Compound 350], the remaining activity at 10 µM was determined as 10%. In the case of `Cc1cc2c(cc1Cc1ccc(C(=O)Nc3cccc(C#N)c3)o1)C(C)(C)CCC2(C)C` [Compound 351], the remaining activity at 10 µM worked out at 24%. Still for that read-out and setting: the result for `Cc1cc2c(cc1Cc1ccc(C(=O)Nc3ccccc3C(=O)NCc3cccnc3)o1)C(C)(C)CCC2(C)C` [Compound 352] reads 51%; that for `Cc1cc2c(cc1Cc1ccc(C(=O)Nc3nc(Cl)c4nc[nH]c4n3)o1)C(C)(C)CCC2(C)C` [Compound 353], -4%. For the molecule `Cc1cc2c(cc1Cc1ccc(C(=O)Nc3ccc4[nH]c(O)nc4c3)o1)C(C)(C)CCC2(C)C` [Compound 355], the remaining activity at 10 µM was 20%. On the same count and under the same terms, the result for `Cc1cc2c(cc1Cc1ccc(C(=O)Nc3nccc4ccccc34)o1)C(C)(C)CCC2(C)C` [Compound 356] reads 17%; that for `COc1ccccc1NC(=O)c1ccc(Cc2cc3c(cc2C)C(C)(C)CCC3(C)C)o1` [Compound 358], 9%. On the same count and under the same terms, for `Cc1cc2c(cc1Cc1ccc(C(=O)Nc3cccc(OC(F)(F)F)c3)o1)C(C)(C)CCC2(C)C` [Compound 359] the value was 55%. `Cc1nc2cc(NC(=O)c3ccc(Cc4cc5c(cc4C)C(C)(C)CCC5(C)C)o3)ccc2s1` [Compound 360]: the remaining activity at 10 µM worked out at 4%. On the same count and under the same terms, the result for `COC(=O)c1ccc(OC)c(NC(=O)c2ccc(Cc3cc4c(cc3C)C(C)(C)CCC4(C)C)o2)c1` [Compound 361] reads 4%; that for `Cc1cc2c(cc1Cc1ccc(C(=O)Nc3ccccc3C)o1)C(C)(C)CCC2(C)C` [Compound 362], 1%; that for `CSc1ccccc1NC(=O)c1ccc(Cc2cc3c(cc2C)C(C)(C)CCC3(C)C)o1` [Compound 363], 14%.

Consider `Cc1cccc(NC(=O)c2ccc(Cc3cc4c(cc3C)C(C)(C)CCC4(C)C)o2)c1` [Compound 364], for which the remaining activity at 10 µM was 21%. In the case of `Cc1cc2c(cc1Cc1ccc(C(=O)Nc3ccc4cn[nH]c4c3)o1)C(C)(C)CCC2(C)C` [Compound 365], the remaining activity at 10 µM came out at 47%.

As for `CSc1ccc(NC(=O)c2ccc(Cc3cc4c(cc3C)C(C)(C)CCC4(C)C)o2)cc1` [Compound 366], the remaining activity at 10 µM worked out at 37%. Regarding `Cc1cc2c(cc1Cc1ccc(C(=O)Nc3ccc4c(c3)OCO4)o1)C(C)(C)CCC2(C)C` [Compound 367], the remaining activity at 10 µM is 15%. Take `Cc1cc2c(cc1Cc1ccc(C(=O)Nc3ccccc3C(=O)NCCCN3CCCC3=O)o1)C(C)(C)CCC2(C)C` [Compound 368]: the remaining activity at 10 µM worked out at 56%. On to `Cc1cc2c(cc1Cc1ccc(C(=O)Nc3ncccc3O)o1)C(C)(C)CCC2(C)C` [Compound 369], for which the remaining activity at 10 µM was 11%. Still for that read-out and setting: the result for `Cc1cc2c(cc1Cc1ccc(C(=O)Nc3cccc([N+](=O)[O-])c3)o1)C(C)(C)CCC2(C)C` [Compound 370] reads 37%; that for `Cc1cc2c(cc1Cc1ccc(C(=O)Nc3ccc(O)c([N+](=O)[O-])c3)o1)C(C)(C)CCC2(C)C` [Compound 371], 55%; that for `Cc1cc2c(cc1Cc1ccc(C(=O)Nc3cc(CO)ccc3C)o1)C(C)(C)CCC2(C)C` [Compound 372], 1%. Same read-out and setting: the result for `Cc1cc2c(cc1Cc1ccc(C(=O)Nc3c(C)cccc3O)o1)C(C)(C)CCC2(C)C` [Compound 373] reads 19%; that for `COC(=O)c1ccc(NC(=O)c2ccc(Cc3cc4c(cc3C)C(C)(C)CCC4(C)C)o2)cc1OC` [Compound 374], 13%. Still for that read-out and setting: the result for `CCc1ccc(C)nc1NC(=O)c1ccc(Cc2cc3c(cc2C)C(C)(C)CCC3(C)C)o1` [Compound 375] reads 16%; that for `Cc1cc2c(cc1Cc1ccc(C(=O)Nc3ccc(O)c(C)c3C)o1)C(C)(C)CCC2(C)C` [Compound 376], 50%. With `Cc1cc2c(cc1Cc1ccc(C(=O)Nc3ccc4c(=O)[nH][nH]c(=O)c4c3)o1)C(C)(C)CCC2(C)C` [Compound 377], the remaining activity at 10 µM stood at 39%. On to `COc1cccc(C)c1NC(=O)c1ccc(Cc2cc3c(cc2C)C(C)(C)CCC3(C)C)o1` [Compound 378], for which the remaining activity at 10 µM is -4%. With `Cc1cc2c(cc1Cc1ccc(C(=O)Nc3ncccc3C)o1)C(C)(C)CCC2(C)C` [Compound 379], the remaining activity at 10 µM was found to be 4%. For the molecule `Cc1cc2c(cc1Cc1ccc(C(=O)Nc3ccc(O)c(Cl)c3)o1)C(C)(C)CCC2(C)C` [Compound 380], the remaining activity at 10 µM came to 29%. Still for that read-out and setting: the result for `COc1ccc(NC(=O)c2ccc(Cc3cc4c(cc3C)C(C)(C)CCC4(C)C)o2)cc1F` [Compound 381] reads 34%; that for `Cc1cc2c(cc1Cc1ccc(C(=O)Nc3ccc4[nH]ncc4c3)o1)C(C)(C)CCC2(C)C` [Compound 383], 7%.

On to `Cc1cc2c(cc1Cc1ccc(C(=O)Nc3ccccc3)o1)C(C)(C)CCC2(C)C` [Compound 384], for which the remaining activity at 10 µM was determined as 21%. For the molecule `COC(=O)c1cc(OC)c(OC)c(OO)c1NC(=O)c1ccc(Cc2cc3c(cc2C)C(C)(C)CCC3(C)C)o1` [Compound 386], the remaining activity at 10 µM is 27%.

Still in this assay, the particulars now being: substrate remaining; 10 uM compound; closer to zero = closer to 100% inhibition.
Take `Cc1cc2c(cc1Cc1ccc(C(=O)Nc3ccc4[nH]ccc4c3)o1)C(C)(C)CCC2(C)C` [Compound 354]: the “S%R 10 uM hGnRHR” value is listed as −5%. The same measure, in the same setting: for `Cc1cc2c(cc1Cc1ccc(C(=O)Nc3ccc4[nH]ccc4c3)o1)C(C)(C)CCC2(C)C` [Compound 357] the value was −2%. Still for that read-out and setting: the result for `Cc1cc2c(cc1Cc1ccc(C(=O)Nc3ccc4c(=O)[nH][nH]c(=O)c4c3)o1)C(C)(C)CCC2(C)C` [Compound 385] reads 41%.
